Results reported in patent US20060024392A1, “Compositions and methods for enhancing the effectiveness of a chemotherapeutic agent” (priority 2004, published 2006).

Key:
HT29 colon cancer cells = experiment: Sulforhodamine B (SRB) cell growth assay in HT29 colon cancer cells; type: cell-based
Experimental: HT-29, a cell line derived from colorectal adenocarcinoma (ATCC, HTB 38), grows in McCoy's 5A medium (Biowhittaker, Inc. Walkersville, Md.). NCM460, a cell line derived from a normal human colon (InCell Corp. San Antonio, Tex.), grows in M3 Base media (InCell Corp. San Antonio, Tex.).
Both cell lines are kept at 37° C. and 5% CO2 atmosphere. Both media are supplemented with 10% fetal bovine serum (FBS, Biowhittaker, Inc. Walkersville, Md.).
Cells are fixed in situ by the gentle addition of 50 μl of cold 50% (w/v) TCA (final concentration, 10% TCA) and incubated for 60 minutes at 4° C. The supernatant is discarded, and the plates are washed five times with tap water and air dried. Sulforhodamine B (SRB) solution (100 μl) at 0.4% (w/v) in 1% acetic acid is added to each well, and plates are incubated for 10 minutes at room temperature. After staining, unbound dye is removed by washing five times with 1% acetic acid and the plates are air dried. Bound stain is subsequently solubilized with 100 μl 10 mM trizma base for 5 minutes, and the absorbance at wavelength of 490 nm was spectrophotometrically measured using a microplate reader Elx800 (Bio-Tek instruments, Inc.).
Cells were seeded in 96-well cluster tissue culture plates (Costar), containing 100 μl complete growth medium per well at densities of 5,000 cells per well. Incubated at 37° C. in a humidified tissue culture incubator. After 24 Hour, 100 μl complete medium containing 5 half-log dilutions of the 5FU from 2*10^−4 to 2*10^−6 M was added into each well (final concentrations are from 10^−4 to 10^−6 M). Six replicates were used for each concentration. Media containing 0.125% DMSO was used as control. After 48 hours of incubation with 5FU in medium, cell proliferation was assessed using the SRB assay.
Percentage growth (Growth%) is calculated as: [(Ti−Tz)/(C−Tz)]×100 [absorbance measurements at time zero (Tz), control growth (C), and test growth in the presence of drug at the different concentration levels (Ti)].
Similar to the method used in testing GI50 of 5FU: HT29 was plated at 5000 cells per well. […] After 48 hour treatment, cell growth was assessed using SRB assay.
The protocol was the same as described above, except cells were exposed to 5FU at concentration ranging from 10^−4 to 10^−6 M with chokeberry ARE at concentration of 1.56, 5, 15.6, 50 μg monomeric anthocyanin/ml growth media.
The protocol was the similar to Experiment 1: Cells were exposed to half-log diluted SAC at concentration ranging from 3.2 to 1000 μM for 48 hour. Media containing 0.5% filtered water was used as control.
This experiment was to determine whether the antioxidant, SAC would enhance the effect of 5FU in HT29 cells. The protocol was the same as Experiment 3, except cells were exposed to 5FU at concentration ranging from 10^−4 to 10^−6 M with SAC at concentration of 10, 100, 1000 μM.

colon cancer = details: clinical treatment of colon cancer; cited from earlier work
[1] = 5FU 1.0E−4 M, 48 h, experiment 1
[2] = 5FU 1.0E−4 M, 48 h, experiment 2
[3] = 5FU 1.0E−4 M, 48 h, experiment 3
[4] = 5FU 1.0E−4 M, 48 h, experiment 4
[5] = 5FU 1.0E−4.5 M, 48 h, experiment 1
[6] = 5FU 1.0E−4.5 M, 48 h, experiment 2
[7] = 5FU 1.0E−4.5 M, 48 h, experiment 3
[8] = 5FU 1.0E−4.5 M, 48 h, experiment 4
[9] = 5FU 1.0E−5 M, 48 h, experiment 1
[10] = 5FU 1.0E−5 M, 48 h, experiment 2
[11] = 5FU 1.0E−5 M, 48 h, experiment 3
[12] = 5FU 1.0E−5 M, 48 h, experiment 4
[13] = 5FU 1.0E−5.5 M, 48 h, experiment 1
[14] = 5FU 1.0E−5.5 M, 48 h, experiment 2
[15] = 5FU 1.0E−5.5 M, 48 h, experiment 3
[16] = 5FU 1.0E−5.5 M, 48 h, experiment 4
[17] = 5FU 1.0E−6 M, 48 h, experiment 1
[18] = 5FU 1.0E−6 M, 48 h, experiment 2
[19] = 5FU 1.0E−6 M, 48 h, experiment 3
[20] = 5FU 1.0E−6 M, 48 h, experiment 4
[21] = Table 2: 5FU at 1.0E-4.368 M alone, 48 h
[22] = Table 6 (1): 5FU 1.00E−04 M, SAC 0
[23] = Table 6 (1): 5FU 1.00E−05 M, SAC 0
[24] = Table 6 (1): 5FU 1.00E−06 M, SAC 0
[25] = Table 6 (2): 5FU 1.00E−04 M, SAC 0
[26] = Table 6 (2): 5FU 1.00E−05 M, SAC 0
[27] = Table 6 (2): 5FU 1.00E−06 M, SAC 0
[28] = rats, 72 hours after 200 mg/kg 5FU i.p., AIN93 diet with or without 4 g anthocyanin/kg

From the text for male Sprague Dawley rats: The purpose of this experiment was to determine if the toxicity of 5FU would be decreased by feeding rats a diet supplemented with anthocyanin-rich extract (ARE) prior to and during 5FU treatment.
Rats were randomly allocated in two diet groups and maintained for two weeks on either AIN93 or AIN93 plus 4 g anthocyanin/kg (Table 7).
Seventy-two hours after the 5FU injections, rats were euthanized by CO2 inhalation. Blood was collected by heart puncture into heparinized tubes, the stomach and entire intestines were removed and stomach, duodenum, jejunum, ileum, cecum and colon sections were fixed in formalin for histopathological evaluation. In addition to the gastrointestinal tract, the following organs were also collected at necropsy for histopathological evaluation: heart, liver, kidney, spleen and bone marrow. These tissues were also fixed in formalin. All tissues were then routinely processed and stained with H&E for pathological evaluation.

For `O=c1[nH]cc(F)c(=O)[nH]1` [5FU, 5-fluorouracil], the Growth % (HT29 colon cancer cells; [1]) was 48.88%, the OD (HT29 colon cancer cells; [1]) was 0.30 and the Growth % (HT29 colon cancer cells; [2]) was 34.83%. The OD (HT29 colon cancer cells; [2]) was 0.25, the Growth % (HT29 colon cancer cells; [3]) was 37.16% and the OD (HT29 colon cancer cells; [3]) was 0.26. For the same compound, the Growth % (HT29 colon cancer cells; [4]) was 42.91%, the OD (HT29 colon cancer cells; [4]) was 0.25 and the Growth % (HT29 colon cancer cells; [5]) was 54.63%. For the same compound, the OD (HT29 colon cancer cells; [5]) was 0.32, the Growth % (HT29 colon cancer cells; [6]) was 44.48% and the OD (HT29 colon cancer cells; [6]) was 0.27. It also gave a Growth % (HT29 colon cancer cells; [7]) of 43.58%, an OD (HT29 colon cancer cells; [7]) of 0.27 and a Growth % (HT29 colon cancer cells; [8]) of 53.85%. For the same compound, the OD (HT29 colon cancer cells; [8]) was 0.27, the Growth % (HT29 colon cancer cells; [9]) was 60.38% and the OD (HT29 colon cancer cells; [9]) was 0.33. For the same compound, the Growth % (HT29 colon cancer cells; [10]) was 57.93%, the OD (HT29 colon cancer cells; [10]) was 0.31 and the Growth % (HT29 colon cancer cells; [11]) was 56.76%. The OD (HT29 colon cancer cells; [11]) was 0.31, the Growth % (HT29 colon cancer cells; [12]) was 70.85% and the OD (HT29 colon cancer cells; [12]) was 0.32. For the same compound, the Growth % (HT29 colon cancer cells; [13]) was 82.11%, the OD (HT29 colon cancer cells; [13]) was 0.40 and the Growth % (HT29 colon cancer cells; [14]) was 77.24%. The OD (HT29 colon cancer cells; [14]) was 0.37, the Growth % (HT29 colon cancer cells; [15]) was 76.69% and the OD (HT29 colon cancer cells; [15]) was 0.37. It also gave a Growth % (HT29 colon cancer cells; [16]) of 87.85%, an OD (HT29 colon cancer cells; [16]) of 0.36 and a Growth % (HT29 colon cancer cells; [17]) of 94.25%. It also gave an OD (HT29 colon cancer cells; [17]) of 0.44, a Growth % (HT29 colon cancer cells; [18]) of 94.83% and an OD (HT29 colon cancer cells; [18]) of 0.42. For the same compound, the Growth % (HT29 colon cancer cells; [19]) was 88.51%, the OD (HT29 colon cancer cells; [19]) was 0.41 and the Growth % (HT29 colon cancer cells; [20]) was 96.36%. The OD (HT29 colon cancer cells; [20]) was 0.38, the growth inhibition (HT29 colon cancer cells; 5FU alone at GI50 concentration (FIG. 1)) was 65% and the Growth % (HT29 colon cancer cells; [21]) was 35.02%. For the same compound, the OD (HT29 colon cancer cells; [21]) was 0.22, the Growth % (HT29 colon cancer cells; Table 3: 5FU 1.0E−4 M, ARE 0) was 29.77% and the OD (HT29 colon cancer cells; Table 3: 5FU 1.0E−4 M, ARE 0) was 0.20. For the same compound, the Growth % (HT29 colon cancer cells; Table 3: 5FU 1.0E−5 M, ARE 0) was 49.30%, the OD (HT29 colon cancer cells; Table 3: 5FU 1.0E−5 M, ARE 0) was 0.24 and the Growth % (HT29 colon cancer cells; Table 3: 5FU 1.0E−6 M, ARE 0) was 82.33%. For the same compound, the OD (HT29 colon cancer cells; Table 3: 5FU 1.0E−6 M, ARE 0) was 0.31, the Growth % (HT29 colon cancer cells; [22]) was 27.44% and the OD (HT29 colon cancer cells; [22]) was 0.175. The Growth % (HT29 colon cancer cells; [23]) was 52.09%, the OD (HT29 colon cancer cells; [23]) was 0.228 and the Growth % (HT29 colon cancer cells; [24]) was 91.63%. It also gave an OD (HT29 colon cancer cells; [24]) of 0.313, a Growth % (HT29 colon cancer cells; [25]) of 26.16% and an OD (HT29 colon cancer cells; [25]) of 0.178. For the same compound, the Growth % (HT29 colon cancer cells; [26]) was 43.46%, the OD (HT29 colon cancer cells; [26]) was 0.219 and the Growth % (HT29 colon cancer cells; [27]) was 79.32%. For the same compound, the OD (HT29 colon cancer cells; [27]) was 0.304, the “growth of cells, % of control” value (HT29 colon cancer cells; highest concentration of 5FU alone) was 30 % of control and the “growth of cells, % of control” value (HT29 colon cancer cells; intermediate concentration of 5FU alone) was 50 % of control. For the same compound, the “growth of cells, % of control” value (HT29 colon cancer cells; lowest concentration of 5FU (10^−6 M) alone) was 80 % of control, the “clinical signs in preliminary experiment” value (male Sprague Dawley rats; 2 rats, 5FU 200 mg/kg) was “caused weight loss and diarrhea” and the bone marrow histopathology (male Sprague Dawley rats; [28]) was “panmyelophthisis of the bone marrow with congestion”. For the same compound, the kidney histopathology (male Sprague Dawley rats; [28]) was “acute toxic nephropathy of the proximal convoluted tubules was present in all 5FU treated animals in mild to moderate severity”, the small intestine histopathology (male Sprague Dawley rats; [28]) was “intestinal villi were moderately to severely denuded” and the “overall histopathological changes in tissues” value (male Sprague Dawley rats; rats, 5FU 200 mg/kg i.p. or AIN93 plus 4 g anthocyanin/kg diet with saline) was “significant acute toxicological changes”. For the same compound, the response rate (colon cancer) was 20%.
